Assay results from patent publication US10787483B2, “Antimicrobial peptidomimetics” (Agency for Science, Technology and Research, priority 2014, dated 2020).
≈ marks a conversion by molar mass, not a printed value. Like-named read-outs stand apart in the source and are kept apart here. Square brackets hold non-standard residues; d marks the D form. Peptide text beside a SMILES is read from it. * marks the point of attachment. ξ: configuration not given here. Phe(4-guanidino) = N=C(N)Nc1ccc(C[C@H](N)C(=O)O)cc1; Bip = N[C@@H](Cc1ccc(-c2ccccc2)cc1)C(=O)O; ξpGlu = O=C1CCC(C(=O)O)N1; Agmatine = N=C(N)NCCCCN*; Orn = NCCC[C@H](N)C(=O)O

Key:
[1] = test system: MRSA (ATCC 33591); assay: MIC determination by broth microdilution vs. MRSA (ATCC 33591); assay type: cell-based, Staphylococcus aureus; details: for MIC: Staphylococcus aureus
Protocol: (§1) Using a sterile loop, 3 to 5 isolated colonies of bacteria of the same morphological appearance are selected from the overnight agar plate. The colonies are transferred into a conical flask containing 5 mL of liquid medium (i.e. Mueller-Hinton broth). The broth is incubated at 37° C. in a shaker at 220 rpm until it reaches a turbidity that is equal to the turbidity of a McFarland Standard 0.5 (correspond to 1×10^8 cfu/mL). This culture growth step will require 1-2 hours depending on the bacteria tested.
During this pause period, an antibacterial dilution is prepared. Therefore an antibacterial stock solution is diluted in Mueller-Hinton broth. The concentration of DMSO is kept at 5%. 100 μL of the antibacterial solution are dispensed into the first well of a row. 50 μL of medium containing 0.5% of DMSO are dispensed to the rest of the wells. A 2-fold serial dilution is achieved by transferring 50 μL from the first well (containing the highest concentration of antibacterial) into the second well, and continuing like this until the 10th well in the row. The final 50 μL are discarded so that every well has 50 μL of each antibacterial dilution.
The 11th well was used as the growth control well (medium with bacterial inoculums, no antibacterial) while the 12th well was the sterility control well (medium only).
The bacterial suspension prepared above is mixed thoroughly, and diluted by a factor of 1:100 in the sterile medium. Each well and the growth control well is inoculated with 50 μL of the bacterial suspension. […] To the sterility control well 50 μL of sterile medium are added in place of the bacterial suspension. 10 μL aliquot from the growth control well is removed immediately after inoculating the plate and pipetted it into a sterile Eppendorf tube holding 990 μL of sterile broth. It is mixed well by vortexing. This suspension is further diluted (1:10) by pipetting 100 μL into 900 μL of sterile broth and mixing it well. 100 μL of each of the two dilutions are plated onto two different antibacterial-free agar plates. A sterile cell spreader is used to spread the liquid. Then the plate is sealed with a transparent adhesive film. The microtiter plate and agar plates are incubated at 37° C. for 16-20 hours or until satisfactory growth is obtained. The colonies on the agar plate are counted the next day to verify that the right number of cfu was inoculated. The plate is agitated in the SpectraMax spectrophotometer for 90 s and the OD600 for all the wells in the plate is recorded.

[2] = test system: S. aureus (RN 4220); assay: MIC determination by broth microdilution vs. S. aureus (RN 4220); assay type: cell-based; details: Staphylococcus aureus
Protocol: as §1
(§2) During this pause period, an antibacterial dilution is prepared. Therefore an antibacterial stock solution is diluted in Mueller-Hinton broth. The concentration of DMSO is kept at 5%. 100 μL of the antibacterial solution are dispensed into the first well of a row. 50 μL of medium containing 0.5% of DMSO are dispensed to the rest of the wells. […]
(§3) The bacterial suspension prepared above is mixed thoroughly, and diluted by a factor of 1:100 in the sterile medium. […] The colonies on the agar plate are counted the next day to verify that the right number of cfu was inoculated. The plate is agitated in the SpectraMax spectrophotometer for 90 s and the OD600 for all the wells in the plate is recorded.

[3] = test system: S. aureus (ATCC 29213); assay: MIC determination by broth microdilution vs. S. aureus (ATCC 29213); assay type: cell-based; details: Staphylococcus aureus
Protocol: as §1, §2, §3

[4] = test system: Strep. pneumoniae (ATCC 49619); assay: MIC determination by broth microdilution vs. Strep. pneumoniae (ATCC 49619); assay type: cell-based, Streptococcus pneumoniae
Protocol: as §1, §2, §3

[5] = test system: Strep. pyogenes (ARC 838); assay: MIC determination by broth microdilution vs. Strep. pyogenes (ARC 838); assay type: cell-based; details: Streptococcus pyogenes
Protocol: as §1, §2, §3

[6] = test system: E. faecalis; assay: Antibacterial activity on E. faecalis; assay type: cell-based
Protocol: as §1, §2, §3

[7] = test system: S. aureus (ATCC 29213); assay: Bactericidal activity at MIC after dilution of the antibacterial (FIG. 2); assay type: cell-based, Staphylococcus aureus; details: treatment at its MIC
[8] = MRSA (ATCC 33591), read-out: MIC

| MIC [1, 8] | SMILES | further results |
| --- | --- | --- |
| 6.25 µM (≈ 4.67 µg/mL) | N=C(N)NCCCCNC(=O)[C@H](Cc1ccc(-c2ccccc2)cc1)NC(=O)C[C@H](CCCNC(=N)N)NC(=O)[C@@H](N)Cc1ccc(-c2ccccc2)cc1 [Compound 20] |  |
| 12.5 µM (≈ 8.99 µg/mL) | N=C(N)NCCCCNC(=O)[C@H](Cc1ccc(-c2ccccc2)cc1)NC[C@H](CCCNC(=N)N)NC(=O)[C@@H](N)Cc1ccc(-c2ccccc2)cc1 [Compound 28] |  |
| 12.5 µM (≈ 11.1 µg/mL) | CCCCCCCCCC(=O)N[C@@H](Cc1ccc(-c2ccccc2)cc1)C(=O)N[C@@H](CCCNC(=N)N)C(=O)N[C@@H](Cc1ccc(-c2ccccc2)cc1)C(=O)NCCCCNC(=N)N [Compound 25] |  |
| 25 µM (≈ 18.3 µg/mL) | N=C(N)NCCCCNC(=O)[C@H](Cc1ccc(-c2ccccc2)cc1)NC(=O)[C@@H](CCCNC(=N)N)NC(=O)[C@@H](N)Cc1ccc(-c2ccccc2)cc1 [Compound 3] |  |
| 6.25 µM (≈ 4.49 µg/mL) | N=C(N)NCCCCNC[C@H](Cc1ccc(-c2ccccc2)cc1)NC(=O)[C@H](CCCNC(=N)N)NC(=O)[C@@H](N)Cc1ccc(-c2ccccc2)cc1 [Compound 27] |  |
| 6.25 µM (≈ 4.88 µg/mL) | N=C(N)NCCCCNC(=O)[C@H](Cc1ccc(-c2ccccc2)cc1)NC(=O)[C@H](Cc1ccc(NC(=N)N)cc1)NC(=O)[C@@H](N)Cc1ccc(-c2ccccc2)cc1 [Compound 17] (H-[Bip]-[Phe(4-guanidino)]-[Bip]-Agmatine) |  |
| 25 µM (≈ 17.3 µg/mL) | N=C(N)NCCCCNC(=O)[C@H](Cc1ccc(-c2ccccc2)cc1)NC(=O)[C@H](CCCNC(=N)N)NC(=O)[C@@H](N)Cc1ccc(Cl)cc1 [Compound 22] |  |
| 6.25 µM (≈ 4.67 µg/mL) | N=C(N)NCCCCNC(=O)[C@H](Cc1ccc(-c2ccccc2)cc1)NC(=O)[C@H](CCCCNC(=N)N)NC(=O)[C@@H](N)Cc1ccc(-c2ccccc2)cc1 [Compound 19] |  |
|  | N=C(N)NCCCCNC(=O)[C@H](Cc1ccc(-c2ccccc2)cc1)NC(=O)[C@H](CCCNC(=N)N)NC(=O)[C@@H](N)Cc1ccc(-c2ccccc2)cc1 [Compound 1a, Bip-Arg-Bip-agmantine] | MIC value compared with Linezolid and Daptomycin ([1]; S. aureus tests (ATCC 33591, RN 4220, ATCC 29123)): lower MIC value; MIC ([1]; MRSA (ATCC 33591), read-out: MIC value): 3.12 µM (≈ 2.29 µg/mL); MIC ([1]; MRSA (ATCC 33591), read-out: MIC(μM) (ATCC 33591)): 3.12 µM (≈ 2.29 µg/mL); MIC [2]: 3.12 µM (≈ 2.29 µg/mL); MIC ([3]; ATCC 29123 / ATCC 29213, S. aureus (ATCC 29123) as printed, read-out: MIC value): 3.12 µM (≈ 2.29 µg/mL); MIC ([3]; ATCC29213, S. aureus (ATCC 29213), read-out: MIC(μM) (ATCC 29213)): 3.12 µM (≈ 2.29 µg/mL); MIC compared with Daptomycin ([4]; Strep. tests (Strep. pneumoniae ATCC 49619, Strep. pyogenes ARC 838)): at least improvement over Daptomycin; MIC ([4]; Streptococcus pneumoniae, ATCC49619, Strep. pneumoniae (ATCC 49619)): 6.25 µM (≈ 4.58 µg/mL); MIC [5]: 6.25 µM (≈ 4.58 µg/mL); activity on E. faecalis [6]: showed activity; mode of action (regrowth after dilution of the antibacterial) [7]: bactericidal mode of action |
| 12.5 µM (≈ 10.6 µg/mL) | CC(C)(C)c1ccc(-c2ccc(C[C@H](NC(=O)[C@H](CCCNC(=N)N)NC(=O)[C@@H](N)Cc3ccc(-c4ccc(C(C)(C)C)cc4)cc3)C(=O)NCCCCNC(=N)N)cc2)cc1 [Compound 26] |  |
|  | N=C(N)NCCCCNC(=O)CN(Cc1ccc(-c2ccccc2)cc1)C(=O)[C@H](CCCNC(=N)N)NC(=O)[C@@H](N)Cc1ccc(-c2ccccc2)cc1 [Compound 10] | MIC [1]: 3.12 µM (≈ 2.29 µg/mL) |
| 6.25 µM (≈ 4.58 µg/mL) | N=C(N)NCCCCNC(=O)[C@H](Cc1ccc(-c2ccccc2)cc1)NC(=O)CN(CCCNC(=N)N)C(=O)[C@@H](N)Cc1ccc(-c2ccccc2)cc1 [Compound 21] |  |
| 12.5 µM (≈ 8.64 µg/mL) | N=C(N)NCCCCNC(=O)[C@H](Cc1ccc(-c2ccccc2)cc1)NC(=O)[C@H](CCCN)NC(=O)[C@@H](N)Cc1ccc(-c2ccccc2)cc1 [Compound 14] (H-[Bip]-[Orn]-[Bip]-Agmatine) |  |
| 50 µM (≈ 35.3 µg/mL) | N=C(N)NCCCCNC(=O)[C@H](Cc1ccc2ccccc2c1)NC(=O)[C@H](CCCNC(=N)N)NC(=O)[C@@H](N)Cc1ccc(-c2ccccc2)cc1 [Compound 9] |  |
| 12.5 µM (≈ 9.69 µg/mL) | CC(=O)N[C@@H](Cc1ccc(-c2ccccc2)cc1)C(=O)N[C@@H](CCCNC(=N)N)C(=O)N[C@@H](Cc1ccc(-c2ccccc2)cc1)C(=O)NCCCCNC(=N)N [Compound 23] |  |
| 12.5 µM (≈ 9.51 µg/mL) | C/N=C(/NC)NCCC[C@H](NC(=O)[C@@H](N)Cc1ccc(-c2ccccc2)cc1)C(=O)N[C@@H](Cc1ccc(-c2ccccc2)cc1)C(=O)NCCCCNC(=N)N [Compound 15] |  |
| 25 µM (≈ 18.3 µg/mL) | N=C(N)NCCC[C@H](NC(=O)[C@@H](N)Cc1ccc(-c2ccccc2)cc1)C(=O)N[C@@H](Cc1ccc(-c2ccccc2)cc1)C(=O)NCCCCNC(N)=O [Compound 5] |  |
| 3.12 µM (≈ 2.25 µg/mL) | N=C(N)NCCCCNC(=O)[C@H](Cc1ccc(-c2ccccc2)cc1)NC(=O)[C@H](CCCNC(=N)N)NC[C@@H](N)Cc1ccc(-c2ccccc2)cc1 [Compound 29] |  |
| 6.25 µM (≈ 4.74 µg/mL) | N=C(N)NCCC[C@H](NC(=O)[C@@H](N)Cc1ccc(-c2ccccc2)cc1)C(=O)N[C@@H](Cc1ccc(-c2ccccc2)cc1)C(=O)N[C@H]1CC[C@H](NC(=N)N)CC1 [Compound 7] |  |
|  | N=C(N)NCCCCNC(=O)CN(Cc1ccc(-c2ccccc2)cc1)C(=O)[C@@H](CCCNC(=N)N)NC(=O)[C@H](N)Cc1ccc(-c2ccccc2)cc1 [Compound 11] | MIC [1]: 12.5 µM (≈ 9.16 µg/mL) |
| 25 µM (≈ 16.4 µg/mL) | N=C(N)NCCCCNC(=O)[C@H](Cc1ccccc1)NC(=O)[C@H](CCCNC(=N)N)NC(=O)[C@@H](N)Cc1ccc(-c2ccccc2)cc1 [Compound 8] (H-[Bip]-Arg-Phe-Agmatine) |  |
|  | CC(=O)NC[C@H]1CN(c2ccc(N3CCOCC3)c(F)c2)C(=O)O1 [Linezolid, reference compound] | mode of action (regrowth after dilution of the antibacterial) [7]: bacteriostatic |
| 6.25 µM (≈ 4.67 µg/mL) | CN(C(=O)[C@H](CCCNC(=N)N)NC(=O)[C@@H](N)Cc1ccc(-c2ccccc2)cc1)[C@@H](Cc1ccc(-c2ccccc2)cc1)C(=O)NCCCCNC(=N)N [Compound 18] |  |
| 12.5 µM (≈ 9.16 µg/mL) | N=C(N)NCCCCNC(=O)[C@@H](Cc1ccc(-c2ccccc2)cc1)NC(=O)[C@H](CCCNC(=N)N)NC(=O)[C@@H](N)Cc1ccc(-c2ccccc2)cc1 [Compound 2] |  |
| 6.25 µM (≈ 4.41 µg/mL) | N=C(N)NCCCCNC(=O)[C@H](Cc1ccc(-c2ccccc2)cc1)NC(=O)[C@H](CCCCN)NC(=O)[C@@H](N)Cc1ccc(-c2ccccc2)cc1 [Compound 13] (H-[Bip]-Lys-[Bip]-Agmatine) |  |
| 25 µM (≈ 17.6 µg/mL) | N=C(N)NCCCCNC(=O)[C@H](Cc1ccc(-c2ccccc2)cc1)NC(=O)[C@H](CNC(=N)N)NC(=O)[C@@H](N)Cc1ccc(-c2ccccc2)cc1 [Compound 16] |  |
| 12.5 µM (≈ 8.64 µg/mL) | N=C(N)NCCCCNC(=O)[C@H](Cc1ccc(Cl)cc1)NC(=O)[C@H](CCCNC(=N)N)NC(=O)[C@@H](N)Cc1ccc(-c2ccccc2)cc1 [Compound 12] |  |
| 25 µM (≈ 18.3 µg/mL) | N=C(N)NCCCCNC(=O)[C@H](Cc1ccc(-c2ccccc2)cc1)NC(=O)[C@H](CCCNC(=N)N)NC(=O)[C@H](N)Cc1ccc(-c2ccccc2)cc1 [Compound 4] |  |
| 6.25 µM (≈ 4.74 µg/mL) | N=C(N)NCCC[C@H](NC(=O)[C@@H](N)Cc1ccc(-c2ccccc2)cc1)C(=O)N[C@@H](Cc1ccc(-c2ccccc2)cc1)C(=O)N[C@H]1CC[C@@H](NC(=N)N)CC1 [Compound 6] |  |

| SMILES | MIC [1, 8] | further results |
| --- | --- | --- |
| N=C(N)NCCCCNC(=O)[C@H](Cc1ccc(-c2ccccc2)cc1)NC(=O)[C@H](CCCNC(=N)N)NC(=O)[C@H](Cc1ccc(-c2ccccc2)cc1)NC(=O)C1CCC(=O)N1 (stereo partly shown) [Compound 24] ([ξpGlu][Bip]R[Bip]-Agmatine) | 12.5 µM (≈ 10.6 µg/mL) |  |
